The results in this text go back to US11236055B2 (Venenum Biodesign, LLC, priority 2016, dated 2022).

The target in one assay is T1, human TGR5 receptor (Homo sapiens, UniProt Q8TDU6).
T1 construct: host or cells: CHO-K1 (hTGR5-CHO cells)
T1 sequence (Q8TDU6 1-330): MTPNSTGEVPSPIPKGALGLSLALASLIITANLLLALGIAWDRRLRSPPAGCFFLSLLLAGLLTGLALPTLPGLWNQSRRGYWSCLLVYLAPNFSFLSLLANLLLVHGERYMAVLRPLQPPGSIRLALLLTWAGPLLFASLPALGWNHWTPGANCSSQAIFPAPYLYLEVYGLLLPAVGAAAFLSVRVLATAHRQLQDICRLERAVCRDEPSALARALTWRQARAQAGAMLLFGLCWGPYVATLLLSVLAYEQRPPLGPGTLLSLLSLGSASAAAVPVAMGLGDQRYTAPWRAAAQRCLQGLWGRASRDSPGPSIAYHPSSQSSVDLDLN
Kind of assay: Human TGR5 cAMP production assay. The format is cell-based. The following applies: human TGR5, luminescent cAMP assay; coded A-D; read-out: Human TGR5 Lum. cAMP Activity (EC50). The essentials: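 Intracellular cAMP read by luminescent enzyme-complementation (XS+) after overnight development, following 1 h room-temperature compound treatment of hTGR5-CHO-K1 cells in IBMX plus anti-cAMP antibody. Compounds tested as half-log dilution series; EC50 derived.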

For another assay, the target named is T2, mouse TGR5 receptor (Mus musculus, UniProt Q80SS6).
T2 construct: expressed in transfected cells; host or cells: HEK293-EBNA (293 c18, ATCC CRL10852), Hygromycin B selection
T2 sequence (Q80SS6 1-329): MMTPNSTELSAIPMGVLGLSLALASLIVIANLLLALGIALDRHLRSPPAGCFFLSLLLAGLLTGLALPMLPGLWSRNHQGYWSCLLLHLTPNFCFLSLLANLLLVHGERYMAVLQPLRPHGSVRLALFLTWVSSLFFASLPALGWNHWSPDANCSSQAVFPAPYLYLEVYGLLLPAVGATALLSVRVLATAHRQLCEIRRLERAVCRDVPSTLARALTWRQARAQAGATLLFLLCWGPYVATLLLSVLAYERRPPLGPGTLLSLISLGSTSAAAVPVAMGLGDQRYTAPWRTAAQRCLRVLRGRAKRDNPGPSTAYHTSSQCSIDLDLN
The experiment in a line: Mouse TGR5 cAMP production assay (HTRF, Cisbio cAMP HiRange). It is filed as cell-based. The settings on record: HEK293-EBNA cells overexpressing mouse TGR5, HTRF cAMP HiRange; coded A-D. The essentials: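 cAMP read by HTRF competition after 1 h room-temperature compound exposure of mouse TGR5-overexpressing HEK293-EBNA cells. Cells were suspended in serum-free DMEM containing 500 μM IBMX; compounds ran as 12-point half-log dilutions in duplicate; EC50 derived.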
(In general: Cyclic AMP is a second messenger, typically raised through Gs and lowered through Gi signalling.)

SMILES strings stand for the structures. Where only a bound is given, the exact number is not on record here.

The term EC50 denotes the concentration giving half of the maximal effect. With `CCc1cnccc1-c1cccc(C2CN(C(=O)CCC(=O)NCCS(=O)(=O)O)CCN2S(=O)(=O)c2cccc(Cl)c2C)c1` (stereo not shown) [Compound 53AB, 2-(4-(4-((3-chloro-2-methylphenyl)sulfonyl)-3-(3-(3-ethylpyridin-4-yl)phenyl)piperazin-1-yl)-4-oxobutanamido)ethanesulfonic acid], the EC50 is 100 to 999 nM at human TGR5 receptor and under 100 nM at mouse TGR5 receptor.

Take `Cc1cnccc1-c1cccc(C(C)N(CCCC(=O)NCCSO)S(=O)(=O)c2ccccc2C(F)(F)F)c1` (stereo not shown) [Compound 20BC, N-(2-(hydroxythio)ethyl)-4-(N-(1-(3-(3-methylpyridin-4-yl)phenyl)ethyl)-2-(trifluoromethyl)phenylsulfonamido)butanamide]: the half-maximal effective concentration (EC50) at human TGR5 receptor is under 100 nM; on mouse TGR5 receptor, 100 to 999 nM.

`CCc1cnccc1-c1cccc([C@H](C)N(CCCC(=O)NCC[N+](C)(C)C)S(=O)(=O)c2cccc(Cl)c2C)c1` [Compound 27AE, (S)-2-(4-(3-chloro-N-(1-(3-(3-ethylpyridin-4-yl)phenyl)ethyl)-2-methylphenylsulfonamido)butanamido)-N,N,N-trimethylethanaminium]: the figures for the EC50 at human TGR5 receptor and at mouse TGR5 receptor were under 100 nM and 100 to 999 nM, respectively.

As to `Cc1cnccc1-c1cccc(C(C)(C)NS(=O)(=O)c2ccccc2C)c1` [Compound 2BX], the 50% effective concentration (EC50) on human TGR5 receptor and at mouse TGR5 receptor was under 100 nM throughout.

Consider `Cc1cnccc1-c1cccc([C@@H](C)N(CCCC(=O)NCCS(=O)(=O)O)S(=O)(=O)c2cccc(Cl)c2C)c1` [Compound 21AP, (R)-2-(4-(3-Chloro-2-methyl-N-(1-(3-(3-methylpyridin-4-yl)phenyl)ethyl)phenylsulfonamido)butanamido)ethane-sulfonic acid], for which the EC50 at human TGR5 receptor was under 100 nM; at mouse TGR5 receptor, 1000 to 30000 nM.

Turning to `Cc1cnccc1-c1cccc([C@H](C)N(CCCCC(=O)NCCOCCN)S(=O)(=O)c2cccc(Cl)c2C)c1` [Compound 20AT, (S)-N-(2-(2-aminoethoxy)ethyl)-5-(3-chloro-2-methyl-N-(1-(3-(3-methylpyridin-4-yl)phenyl)ethyl)phenylsulfonamido)pentanamide], the concentration giving a half-maximal response (EC50) on human TGR5 receptor was under 100 nM; at mouse TGR5 receptor, 100 to 999 nM.

As for `COc1cnccc1-c1ccnc(CNS(=O)(=O)c2ccccc2C(F)(F)F)c1` [Compound 1BT], the EC50 at human TGR5 receptor and at mouse TGR5 receptor was 1000 to 30000 nM throughout.

In the case of `CCc1cnccc1-c1cccc(C2CN(CC(=O)O)CCN2S(=O)(=O)c2cccc(Cl)c2C)c1` (stereo not shown) [Compound 51, 2-(4-((3-Chloro-2-methylphenyl)sulfonyl)-3-(3-(3-ethylpyridin-4-yl)phenyl)piperazin-1-yl)acetic acid], the 50% effective concentration (EC50) at human TGR5 receptor and at mouse TGR5 receptor was 100 to 999 nM each time.

Regarding `CC(=O)Nc1cc(-c2cccc(C(C)(C)NS(=O)(=O)c3cccc(C(F)(F)F)c3)c2)ccn1` [Compound 9, N-(4-(3-(2-(3-(trifluoromethyl)phenylsulfonamido)propan-2-yl)phenyl)pyridin-2-yl)acetamide], the EC50 on human TGR5 receptor and at mouse TGR5 receptor was 1000 to 30000 nM throughout.

In the case of `Cc1cnccc1-c1cccc([C@H](C)N(CCC(=O)O)S(=O)(=O)c2cccc(Cl)c2C)c1` [Compound 16AK, (S)-3-(3-chloro-2-methyl-N-(1-(3-(3-methylpyridin-4-yl)phenyl)ethyl)phenylsulfonamido)propanoic acid], the concentration giving a half-maximal response (EC50) on human TGR5 receptor and on mouse TGR5 receptor was 1000 to 30000 nM throughout.

`CCc1cnccc1-c1cccc(C2CN(C(=O)CCC(=O)NCCCS(=O)(=O)O)CCN2S(=O)(=O)c2cccc(Cl)c2C)c1` (stereo not shown) [Compound 53AC, 3-(4-(4-((3-chloro-2-methylphenyl)sulfonyl)-3-(3-(3-ethylpyridin-4-yl)phenyl)piperazin-1-yl)-4-oxobutanamido)propane-1-sulfonic acid]: the EC50 is 100 to 999 nM at human TGR5 receptor and under 100 nM at mouse TGR5 receptor.

Take `Cc1cnccc1-c1cccc(C(C)(C)N(CCCC(=O)NCCNC(=N)N)S(=O)(=O)c2cccc(Cl)c2C)c1` [Compound 27AB, 4-(3-chloro-2-methyl-N-(2-(3-(3-methylpyridin-4-yl)phenyl)propan-2-yl)phenylsulfonamido)-N-(2-guanidinoethyl)butanamide]: the concentration for a half-maximal effect (EC50) at human TGR5 receptor was under 100 nM; on mouse TGR5 receptor it was 100 to 999 nM.

`Cc1c(Cl)cccc1S(=O)(=O)N1CCN(C(=O)CCC(=O)O)CC1c1cccc(-c2ccncc2Cl)c1` (stereo not shown) [Compound 46AG, 4-(4-((3-chloro-2-methylphenyl)sulfonyl)-3-(3-(3-chloropyridin-4-yl)phenyl)piperazin-1-yl)-4-oxobutanoic acid]: the figures for the EC50 on human TGR5 receptor and at mouse TGR5 receptor were 100 to 999 nM and under 100 nM, respectively.

With `Cc1cnccc1-c1cccc(C(C)(C)N(CCCNc2ncc(C(=O)O)cn2)S(=O)(=O)c2cccc(Cl)c2C)c1` [Compound 27, 2-((3-((3-chloro-2-methyl-N-(2-(3-(3-methylpyridin-4-yl)phenyl)propan-2-yl)phenyl)sulfonamido)propyl)amino)pyrimidine-5-carboxylic acid], the concentration for a half-maximal effect (EC50) on human TGR5 receptor was under 100 nM; at mouse TGR5 receptor it was 100 to 999 nM.

In the case of `Cc1cnccc1-c1cccc(C(C)(C)N(CCCC(=O)N[C@@H](CS(=O)(=O)O)C(=O)O)S(=O)(=O)c2cccc(Cl)c2C)c1` [Compound 21AA, (R)-2-(4-(3-chloro-2-methyl-N-(2-(3-(3-methylpyridin-4-yl)phenyl)propan-2-yl)phenylsulfonamido)butanamido)-3-sulfopropanoic acid], the EC50 was 100 to 999 nM on human TGR5 receptor and under 100 nM at mouse TGR5 receptor.

In the case of `Cc1cnccc1-c1cccc(C(C)(C)N(CCCC(=O)NCCNC(=O)OC(C)(C)C)S(=O)(=O)c2cccc(Cl)c2C)c1` [Compound 20AV, tert-butyl (2-(4-(3-chloro-2-methyl-N-(2-(3-(3-methylpyridin-4-yl)phenyl)propan-2-yl)phenylsulfonamido)butanamido)ethyl)carbamate], the 50% effective concentration (EC50) on human TGR5 receptor is under 100 nM; on mouse TGR5 receptor, 100 to 999 nM.

Consider `Cc1c(Cl)cccc1S(=O)(=O)N(CCCC(=O)NCCS(=O)(=O)NCC(=O)O)[C@@H](C)c1cccc(-c2ccncc2CO)c1` [Compound 20BS, (S)-2-(4-(3-chloro-N-(1-(3-(3-(hydroxymethyl)pyridin-4-yl)phenyl)ethyl)-2-methylphenylsulfonamido)butanamido)ethanesulfonamido acetic acid], for which the EC50 is 100 to 999 nM on human TGR5 receptor and under 100 nM at mouse TGR5 receptor.

For `Cc1cnccc1-c1cccc(C2CN(C(=O)CCC(=O)O)CCN2S(=O)(=O)c2cccc(Cl)c2Cl)c1` (stereo not shown) [Compound 46AK, 4-(4-((2,3-dichlorophenyl)sulfonyl)-3-(3-(3-methylpyridin-4-yl)phenyl)piperazin-1-yl)-4-oxobutanoic acid], the values for the concentration giving a half-maximal response (EC50) on human TGR5 receptor and at mouse TGR5 receptor were 100 to 999 nM and under 100 nM, respectively.

Regarding `CC[C@H](NS(=O)(=O)c1cccc(C(F)(F)F)c1)c1cccc(-c2ccncc2C)c1` [Compound 5AY, (S)-N-(1-(3-(3-methylpyridin-4-yl)phenyl)propyl)-3-(trifluoromethyl)benzenesulfonamide], the EC50 at human TGR5 receptor is under 100 nM; on mouse TGR5 receptor it was 100 to 999 nM.

`Cc1cnccc1-c1cccc([C@H](C)N(CCC(=O)NCCS(=O)(=O)O)S(=O)(=O)c2cccc(Cl)c2C)c1` [Compound 20BV, (S)-2-(3-(3-chloro-2-methyl-N-(1-(3-(3-methylpyridin-4-yl)phenyl)ethyl)phenylsulfonamido)propanamido)ethanesulfonic acid]: the EC50 is 100 to 999 nM on human TGR5 receptor and under 100 nM on mouse TGR5 receptor.

As to `Cc1cnccc1-c1cccc(C(C)(C)N(CCCC(=O)N[C@@H](C)C(=O)O)S(=O)(=O)c2cccc(Cl)c2C)c1` [Compound 21AF, (S)-2-(4-(3-chloro-2-methyl-N-(2-(3-(3-methylpyridin-4-yl)phenyl)propan-2-yl)phenylsulfonamido)butanamido)propanoic acid], the concentration giving a half-maximal response (EC50) at human TGR5 receptor and on mouse TGR5 receptor was under 100 nM throughout.

Regarding `Cc1c(Cl)cccc1S(=O)(=O)N(CCCC(=O)NCCS(=O)(=O)O)[C@@H](C)c1cccc(-c2ccncc2CO)c1` [Compound 20AP, (S)-2-(4-(3-chloro-N-(1-(3-(3-(hydroxymethyl)pyridin-4-yl)phenyl)ethyl)-2-methylphenylsulfonamido)butanamido)ethanesulfonic acid], the half-maximal effective concentration (EC50) at human TGR5 receptor and at mouse TGR5 receptor was 100 to 999 nM in each case.

On to `Cc1cnccc1-c1cccc([C@H](C)N(CCCCC(=O)NCCOCCNS(=O)(=O)CC(=O)O)S(=O)(=O)c2cccc(Cl)c2C)c1` [Compound 26AD], for which the EC50 at human TGR5 receptor and on mouse TGR5 receptor was under 100 nM throughout.
